The structures appear in SMILES notation. Values joined by “and” are separate entries in the source; they are usually repeats but may differ in a detail not shown here. Equal entries are not always repeated.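 1) Cells in 96-well plates. 2) Compound, 48 h, 5 concentrations. 3) Linear interpolation between surrounding doses. 4) Unreached endpoint = highest concentration. Here, GI50 denotes the concentration required for 50% inhibition of growth. At the TGI there is no net growth.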 Where only a bound is given, the exact number is not on record here.

Some test systems named below: COLO 205 colon; HL-60(TB) leukemia; RXF 393 renal; HOP-92 NSCLC; M14 melanoma; TK-10 renal; NCI-H460 lung; ACHN renal; KM12 colon; MCF7 breast.
Holding throughout (assay): NCI tumour cell line growth inhibition, 48 h

Turning to `CCN(CC)CCOc1ccc(/C(=C(\Cl)c2ccccc2)c2ccccc2)cc1`, the GI50 in the experiment on COLO 205 colon is 0.859 µM and 1.36 µM; with HL-60(TB) leukemia it was 2.1 µM and 3.13 µM; in the experiment on RXF 393 renal, 0.955 µM and 1.49 µM; in the experiment on HOP-92 NSCLC, 1.58 µM; in the experiment on M14 melanoma it was 1.03 µM and 1.73 µM; in the experiment on TK-10 renal it was 5.62 µM and 2.83 µM. For the same molecule, the GI50 in the experiment on NCI-H460 lung is 1.72 µM and 1.78 µM; in the experiment on ACHN renal, 6.4 µM and 4.27 µM; with KM12 colon, 2.1 µM and 1.87 µM; in the experiment on MCF7 breast, 0.307 µM and 0.577 µM. Moreover, the TGI in the experiment on COLO 205 colon was 1.72 µM and 2.83 µM; with HL-60(TB) leukemia it was 7.77 µM and 6.16 µM; with RXF 393 renal, 2.46 µM and 3.03 µM; in the experiment on HOP-92 NSCLC, 5.4 µM; in the experiment with M14 melanoma, 2.04 µM and 3.44 µM; with TK-10 renal it was 12.6 µM and 10.2 µM. The TGI with NCI-H460 lung was 5.32 µM and 3.43 µM; in the experiment on ACHN renal, 13.1 µM and 16.5 µM; in the experiment with KM12 colon it was 7.2 µM and 4.08 µM; in the experiment on MCF7 breast, 7.55 µM and 2.99 µM.

Turning to `COC1/C=C\C=C(/C)C(=O)NC2=CC(=O)C(=O)C(=C2O)CC(C)CC(OC)C(O)C(C)/C=C(\C)C1OC(N)=O` (stereo not given), the TGI in the experiment on COLO 205 colon was 13.3 µM; in the experiment with HL-60(TB) leukemia, above 35.5 µM; in the experiment with RXF 393 renal, 27.5 µM; with HOP-92 NSCLC it was 21 µM; in the experiment with M14 melanoma it was above 53.2 µM; in the experiment on TK-10 renal it was above 57.5 µM. The TGI with NCI-H460 lung is above 100 µM; with ACHN renal it was above 82.1 µM; in the experiment on KM12 colon, 5.57 µM; in the experiment on MCF7 breast it was above 42.4 µM.

Consider `OCc1c[nH]c2ccccc12`, for which the GI50 in the experiment on COLO 205 colon was 16 µM; in the experiment on HL-60(TB) leukemia it was 35.1 µM; with RXF 393 renal, 18.2 µM; with HOP-92 NSCLC it was 9.35 µM; in the experiment with M14 melanoma, 23.4 µM; in the experiment on TK-10 renal it was 44.5 µM. Further, the GI50 was 21 µM in the experiment on NCI-H460 lung, 24.4 µM with ACHN renal, 16 µM with KM12 colon and 29.4 µM in the experiment on MCF7 breast. Further, the TGI is 35.1 µM in the experiment on COLO 205 colon; 77.3 µM in the experiment on HL-60(TB) leukemia; 43.8 µM in the experiment with RXF 393 renal; 63.5 µM with HOP-92 NSCLC; 54.1 µM in the experiment with M14 melanoma; above 100 µM in the experiment on TK-10 renal. In addition, the TGI in the experiment with NCI-H460 lung is 45.4 µM; in the experiment with ACHN renal it was 86.4 µM; with KM12 colon, 37.2 µM; with MCF7 breast it was 95.4 µM.

`CC(=O)OCCN1c2ccccc2Sc2cnccc21`: the TGI with COLO 205 colon, with HL-60(TB) leukemia, in the experiment with RXF 393 renal, in the experiment on HOP-92 NSCLC, in the experiment on M14 melanoma and with TK-10 renal was above 10 µM each time. For the same molecule, the TGI in the experiment with NCI-H460 lung, in the experiment with ACHN renal, in the experiment on KM12 colon and in the experiment on MCF7 breast was above 10 µM each time.

With `O=C1Nc2c(C(F)(F)F)cccc2[C@]1(c1ccc(O)cc1)c1ccc(OC(F)(F)F)cc1`, the GI50 in the experiment with COLO 205 colon is 3.26 µM; with HL-60(TB) leukemia, 13.7 µM; with RXF 393 renal, 3.29 µM; with HOP-92 NSCLC it was 5.82 µM; with M14 melanoma, 14.2 µM; with TK-10 renal, 11.5 µM. Moreover, the GI50 is 8.43 µM in the experiment with NCI-H460 lung, 9.82 µM in the experiment with ACHN renal, 11.3 µM in the experiment with KM12 colon and 4.05 µM with MCF7 breast. Further, the TGI was found to be 25.4 µM in the experiment with COLO 205 colon; 32.5 µM with HL-60(TB) leukemia; 15.5 µM with RXF 393 renal; 21.5 µM in the experiment with HOP-92 NSCLC; 29.2 µM in the experiment on M14 melanoma; 25.3 µM in the experiment on TK-10 renal. Besides, the TGI turned out to be 28.8 µM in the experiment with NCI-H460 lung, 21.5 µM with ACHN renal, 24.2 µM in the experiment on KM12 colon and 16.9 µM in the experiment on MCF7 breast.

Take `O=C(N/N=C/c1ccccc1O)c1ccccc1Nc1ccnc(C(F)(F)F)c1`: the GI50 in the experiment on COLO 205 colon is 0.3 µM; with HL-60(TB) leukemia it was 0.293 µM; in the experiment with RXF 393 renal it was 1.05 µM; in the experiment with HOP-92 NSCLC, 0.388 µM; in the experiment with M14 melanoma it was 0.497 µM; in the experiment on TK-10 renal, 0.467 µM. Also, the GI50 was 0.255 µM in the experiment with NCI-H460 lung, 0.342 µM in the experiment on ACHN renal, 0.484 µM with KM12 colon and 0.35 µM with MCF7 breast. Besides, the TGI is 41.3 µM with COLO 205 colon; 1.69 µM in the experiment on HL-60(TB) leukemia; above 40.3 µM in the experiment with RXF 393 renal; 10.9 µM in the experiment with HOP-92 NSCLC; 3.76 µM with M14 melanoma; above 100 µM with TK-10 renal. The TGI in the experiment with NCI-H460 lung was 11.2 µM; with ACHN renal, above 63.5 µM; with KM12 colon, 32.7 µM; with MCF7 breast it was 29.2 µM.

On to `CCCn1cnc2c(SCc3ccccc3Cl)nc(N)nc21`, for which the GI50 is 10.7 µM in the experiment with COLO 205 colon; 5.53 µM with HL-60(TB) leukemia; 6.16 µM in the experiment with RXF 393 renal; 1.44 µM with HOP-92 NSCLC; 17.6 µM in the experiment on M14 melanoma; 14.5 µM in the experiment on TK-10 renal. Also, the GI50 in the experiment with NCI-H460 lung is 4.2 µM; in the experiment on ACHN renal it was 13.6 µM; with KM12 colon, 15.3 µM; in the experiment on MCF7 breast, 38.6 µM. Besides, the TGI in the experiment with COLO 205 colon is above 100 µM; in the experiment on HL-60(TB) leukemia, 28.6 µM; in the experiment with RXF 393 renal, 24.8 µM; in the experiment on HOP-92 NSCLC, 23.9 µM; with M14 melanoma, 61.9 µM; in the experiment on TK-10 renal, above 100 µM. Moreover, the TGI in the experiment with NCI-H460 lung is 26.4 µM; in the experiment on ACHN renal it was 67.4 µM; with KM12 colon it was above 100 µM; with MCF7 breast it was above 100 µM.

In the case of `N#CSc1c[nH]c2cccc(/C=C/C(=O)/C=C(/C=C/c3cccc4[nH]cc(SC#N)c34)OB(F)F)c12`, the GI50 with COLO 205 colon was 0.293 µM; in the experiment on HL-60(TB) leukemia, 0.293 µM; in the experiment on RXF 393 renal it was 0.226 µM; in the experiment with HOP-92 NSCLC, 0.309 µM; in the experiment on M14 melanoma it was 0.558 µM; in the experiment on TK-10 renal, 0.961 µM. Further, the GI50 was 1.12 µM in the experiment on NCI-H460 lung, 0.389 µM in the experiment with ACHN renal, 1.04 µM in the experiment with KM12 colon and 0.459 µM in the experiment on MCF7 breast. The TGI was 0.856 µM in the experiment on COLO 205 colon; 5.25 µM with HL-60(TB) leukemia; 0.516 µM in the experiment with RXF 393 renal; 1.45 µM in the experiment with HOP-92 NSCLC; 3.08 µM in the experiment with M14 melanoma; 5.94 µM in the experiment with TK-10 renal. The TGI stood at 6.13 µM in the experiment with NCI-H460 lung, 1.72 µM in the experiment on ACHN renal, 3.98 µM in the experiment on KM12 colon and 3.63 µM in the experiment on MCF7 breast.

The values above are taken from PubChem BioAssay (NCI).
